Results reported in patent publication US8334239B2, “High affinity VEGF-receptor antagonists” (The Board of Regents of the University of Texas System, priority 2007, dated 2012).
“Also recorded” adds a separate entry of the source. Positions of bridges follow the written chain, without caps; N, C: chain ends. Non-standard residues stand in square brackets, D forms with d. Residues, ends and D or L forms follow the SMILES beside them. Chains are numbered I, II in the order given. *: point of attachment. Fluorescein(5-Mal) = O=C1OC2(c3ccc(O)cc3Oc3cc(O)ccc32)c2ccc(N3C(=O)CC(*)C3=O)cc21; Gly(N(CH2)2(3-indolyl)) = O=C(O)CNCCc1c[nH]c2ccccc12; Gly(N-piperonyl) = O=C(O)CNCc1ccc2c(c1)OCO2; Nrpe = C[C@@H](NCC(=O)O)c1ccccc1; NFurfurylGly = O=C(O)CNCc1ccco1; Nleu = CC(C)CNCC(=O)O; Nlys = NCCCCNCC(=O)O; Ahx = NCCCCCC(=O)O; βAla = NCCC(=O)O

Key:
VEGFR2 [1] = target: T1, VEGFR2 (Homo sapiens, UniProt P35968); test: ELISA-like binding assay, fluoresceinated peptoids on immobilized VEGFR2 extracellular domain; parameters: VEGFR2 extracellular domain (amino acids 1-764 fused to 6× histidine-tagged Fc of human IgG, via the peptide IEGRMD; R&D Systems); linker peptide IEGRMD (internal); Fc of human IgG (C); 6xHis (C); purchased R&D Systems; conditions: for Fold improved: binding improved compared to the monomer of the series
Procedure: ELISA based binding assay. White, clear bottom 96-well plates (Corning Inc.) were coated with of 1 μg/ml recombinant human VEGFR2 protein (R&D Systems) using the sensitizing buffer (0.621 g NaHCO3 & 0.275 g Na2CO3 dissolved on 100 ml of ddH2O, pH=9.5) overnight at 4° C. Washed with 3×200 μl of wash buffer 1×PBS with 0.05% Tween-20 and blocked with Startingblock blocking buffer (Pierce). Added 50 μl of serial dilutions of FITC labeled peptoids dissolved in Startingblock blocking buffer to each well & allowed to react for 1 h at room temperature. Washed with 5×200 μl of wash buffer 1×PBS with 0.05% Tween-20 and remaining fluorescence was measured at 520 nm using the plate reader.
The isolated peptoids are VEGFR2 ligands. Two of the ‘hits’ from this screen, GU40C and GU40E (see FIG. 2) were resynthesized, both as free compounds and with C-terminal Cys (for C-terminal fluorescein tagging via maleimide chemistry), cleaved from the beads and purified to apparent homogeneity by reverse phase HPLC. […] The association of these peptoids with VEGFR2 was evaluated using an ELISA-like assay. A commercially available fusion protein containing the VEGFR2 extracellular domain (amino acids 1-764 fused to 6× histidine-tagged Fc of human IgG, via the peptide IEGRMD; R&D Systems) was plated into 96-well plates and then mixed with various concentrations of […] Fluorescein (FITC)-labeled peptoid. After washing away unbound peptoid, the remaining fluorescence emission signal was measured at 520 nm. In this assay purified VEGFR2 protein was used instead of the whole PAE/KDR cells that over express VEGFR2, in order to confirm these compounds were binding only to the receptor.
Target sequence in this assay (P35968 20-764): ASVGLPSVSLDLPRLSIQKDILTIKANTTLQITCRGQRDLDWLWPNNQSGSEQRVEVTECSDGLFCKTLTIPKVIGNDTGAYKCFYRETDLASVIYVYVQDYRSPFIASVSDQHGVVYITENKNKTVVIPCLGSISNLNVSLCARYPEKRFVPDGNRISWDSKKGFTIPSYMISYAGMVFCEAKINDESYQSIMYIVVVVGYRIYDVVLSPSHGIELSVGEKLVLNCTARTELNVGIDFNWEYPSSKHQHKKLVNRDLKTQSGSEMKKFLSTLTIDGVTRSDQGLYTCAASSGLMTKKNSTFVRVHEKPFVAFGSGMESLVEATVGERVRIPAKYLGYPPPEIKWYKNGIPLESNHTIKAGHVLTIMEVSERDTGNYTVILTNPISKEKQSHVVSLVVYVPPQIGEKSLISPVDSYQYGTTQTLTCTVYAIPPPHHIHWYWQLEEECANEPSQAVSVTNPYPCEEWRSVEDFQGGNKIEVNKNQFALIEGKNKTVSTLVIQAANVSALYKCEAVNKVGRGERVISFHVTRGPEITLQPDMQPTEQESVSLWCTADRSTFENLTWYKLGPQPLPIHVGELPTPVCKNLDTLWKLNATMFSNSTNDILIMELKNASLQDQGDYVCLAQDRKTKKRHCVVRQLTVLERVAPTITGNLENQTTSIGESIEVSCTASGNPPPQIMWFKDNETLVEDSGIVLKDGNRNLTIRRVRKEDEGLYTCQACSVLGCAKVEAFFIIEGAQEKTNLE

VEGFR2 [2] = target: T1, VEGFR2; test: VEGF-induced VEGFR2 autophosphorylation in PAE/KDR cells, Western blot; type: cell-based; parameters: allow the library to be screened against the full-length receptor in as natural an environment as possible; host or cells: PAE/KDR (porcine aortic endothelial cells expressing human KDR); conditions: for agonist activity on VEGFR2 phosphorylation: PAE/KDR cells, Western blot; for effect on VEGF-induced VEGFR2 phosphorylation (in words): monomeric peptoids, 500 μM
Procedure: Western blots. Experiments were conducted using PAE/KDR cells that were grown on 6-well plates. […] The blots were probed with Phospho-VEGF receptor 2 (Tyr1175) (19A10) rabbit monoclonal or Total VEGFR2 primary antibodies (Cell signaling) and HRP-conjugated secondary antibody (BioRad).
Functional characterization of the VEGFR2-binding peptoids. GU40C and GU40E were then tested for their ability to modulate VEGFR function. Of course, since the screen simply demanded binding of the peptoid to the receptor, it was not a given that this would be the case. […] Western blot analysis using phospho-VEGFR2-specific antibodies was then employed to monitor receptor activation.
To do so, the inventors examined the effect of the peptoid on VEGF-induced VEGFR2 autophosphorylation by Western blotting, as described earlier.
Target sequence in this assay (P35968 20-1356): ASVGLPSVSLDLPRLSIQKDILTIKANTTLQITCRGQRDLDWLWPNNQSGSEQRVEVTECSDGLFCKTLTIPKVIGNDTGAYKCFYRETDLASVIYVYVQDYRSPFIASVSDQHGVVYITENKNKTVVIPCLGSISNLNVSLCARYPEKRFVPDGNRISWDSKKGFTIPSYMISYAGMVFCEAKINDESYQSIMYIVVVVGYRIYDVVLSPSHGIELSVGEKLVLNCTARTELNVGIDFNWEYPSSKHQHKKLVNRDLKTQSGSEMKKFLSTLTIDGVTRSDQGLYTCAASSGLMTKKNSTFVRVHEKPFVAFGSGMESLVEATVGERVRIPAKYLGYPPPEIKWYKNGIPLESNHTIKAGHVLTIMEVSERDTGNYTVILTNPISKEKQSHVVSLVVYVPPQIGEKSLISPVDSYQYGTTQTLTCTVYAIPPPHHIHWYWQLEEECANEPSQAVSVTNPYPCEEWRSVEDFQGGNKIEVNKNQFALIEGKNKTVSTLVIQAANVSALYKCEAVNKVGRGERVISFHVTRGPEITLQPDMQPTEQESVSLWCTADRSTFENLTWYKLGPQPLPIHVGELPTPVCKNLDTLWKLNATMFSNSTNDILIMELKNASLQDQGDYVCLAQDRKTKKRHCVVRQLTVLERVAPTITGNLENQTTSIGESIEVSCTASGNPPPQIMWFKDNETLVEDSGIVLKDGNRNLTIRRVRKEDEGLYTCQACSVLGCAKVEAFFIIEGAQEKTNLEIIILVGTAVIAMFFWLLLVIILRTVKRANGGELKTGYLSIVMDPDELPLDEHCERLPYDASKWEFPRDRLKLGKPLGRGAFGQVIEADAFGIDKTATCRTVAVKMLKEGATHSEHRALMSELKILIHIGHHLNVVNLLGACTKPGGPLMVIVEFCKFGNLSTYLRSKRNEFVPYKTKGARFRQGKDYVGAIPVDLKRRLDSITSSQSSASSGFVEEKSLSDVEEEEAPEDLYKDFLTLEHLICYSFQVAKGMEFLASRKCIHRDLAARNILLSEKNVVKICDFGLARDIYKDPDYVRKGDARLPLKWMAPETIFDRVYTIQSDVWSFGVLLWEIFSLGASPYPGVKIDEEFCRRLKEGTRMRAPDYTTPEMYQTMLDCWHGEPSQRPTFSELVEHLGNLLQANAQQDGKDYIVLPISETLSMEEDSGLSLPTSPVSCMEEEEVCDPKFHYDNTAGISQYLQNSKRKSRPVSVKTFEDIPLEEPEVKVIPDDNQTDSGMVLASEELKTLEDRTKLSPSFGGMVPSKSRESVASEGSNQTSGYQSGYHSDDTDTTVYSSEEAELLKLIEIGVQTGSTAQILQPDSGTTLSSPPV

GST = test: ELISA-like binding assay on immobilized GST
CD105 = target: T2, CD105 (Homo sapiens, UniProt P17813); test: ELISA-like binding assay on immobilized CD105; conditions: same ELISA-like assay
T2 sequence (P17813 26-658): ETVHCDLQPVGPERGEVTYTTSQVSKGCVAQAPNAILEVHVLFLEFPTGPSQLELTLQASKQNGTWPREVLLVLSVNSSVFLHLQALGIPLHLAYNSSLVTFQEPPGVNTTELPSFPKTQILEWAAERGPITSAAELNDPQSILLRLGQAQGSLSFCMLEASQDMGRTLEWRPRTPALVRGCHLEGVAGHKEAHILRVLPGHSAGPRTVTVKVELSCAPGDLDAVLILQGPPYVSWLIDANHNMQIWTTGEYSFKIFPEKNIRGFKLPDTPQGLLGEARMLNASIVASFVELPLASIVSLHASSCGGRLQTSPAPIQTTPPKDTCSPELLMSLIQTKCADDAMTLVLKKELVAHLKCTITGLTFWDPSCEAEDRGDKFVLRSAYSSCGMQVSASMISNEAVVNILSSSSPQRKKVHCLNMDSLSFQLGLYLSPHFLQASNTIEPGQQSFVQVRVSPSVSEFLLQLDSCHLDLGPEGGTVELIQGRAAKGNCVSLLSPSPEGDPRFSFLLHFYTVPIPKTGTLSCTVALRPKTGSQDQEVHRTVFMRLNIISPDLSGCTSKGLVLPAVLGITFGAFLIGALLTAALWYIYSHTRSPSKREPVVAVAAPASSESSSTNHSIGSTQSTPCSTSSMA

Compound | Fold improved (VEGFR2 [1]) | agonist activity on VEGFR2 phosphorylation (VEGFR2 [2]) | effect on VEGF-induced VEGFR2 phosphorylation (in words) (VEGFR2 [2]; 1.3 nM VEGF) | further results
CC(C)CN(CC(=O)N(CCCCN)CC(=O)N(CCCCN)CC(=O)NCCCC[C@H](NC(=O)CCNC(=O)CN(CCCCN)C(=O)CN(CCCCN)C(=O)CN(CC(C)C)C(=O)CN(CCCCN)C(=O)CN(CC(C)C)C(=O)CN(CCCCN)C(=O)CN(Cc1ccco1)C(=O)CN(CCCCN)C(=O)CNCCc1c[nH]c2ccccc12)C(=O)N[C@@H](CSC1CC(=O)N(c2ccc3c(c2)C(=O)OC32c3ccc(O)cc3Oc3cc(O)ccc32)C1=O)C(N)=O)C(=O)CN(CCCCN)C(=O)CN(CC(C)C)C(=O)CN(CCCCN)C(=O)CN(Cc1ccco1)C(=O)CN(CCCCN)C(=O)CNCCc1c[nH]c2ccccc12 (some centres unmarked) [GU40E2] (I: H-[Gly(N(CH2)2(3-indolyl))][Nlys][NFurfurylGly][Nlys][Nleu][Nlys][Nleu][Nlys][Nlys][βAla]KC(Fluorescein(5-Mal))-NH2 / II: H-[Gly(N(CH2)2(3-indolyl))][Nlys][NFurfurylGly][Nlys][Nleu][Nlys][Nleu][Nlys][Nlys]; amide I:11-II:C; N-terminus assumed) | 2 fold | – | – | –
CC(C)CN(CC(=O)N(CCCCN)CC(=O)N(CC(=O)N(CC(=O)N(CCCCN)CC(=O)N(CC(=O)N(CCCCN)CC(=O)N(CCCCN)CC(=O)NCCCC[C@H](NC(=O)CCNC(=O)CN(CCCCN)C(=O)CN(CCCCN)C(=O)CN(CC(C)C)C(=O)CN(CCCCN)C(=O)CN(Cc1ccc2c(c1)OCO2)C(=O)CN(C(=O)CN(CCCCN)C(=O)CN(CC(C)C)C(=O)CNCCCCN)[C@H](C)c1ccccc1)C(=O)N[C@@H](CSC1CC(=O)N(c2ccc3c(c2)C(=O)OC32c3ccc(O)cc3Oc3cc(O)ccc32)C1=O)C(N)=O)CC(C)C)Cc1ccc2c(c1)OCO2)[C@H](C)c1ccccc1)C(=O)CNCCCCN (some centres unmarked) [GU40C2] (I: H-[Nlys][Nleu][Nlys][Nrpe][Gly(N-piperonyl)][Nlys][Nleu][Nlys][Nlys][βAla]KC(Fluorescein(5-Mal))-NH2 / II: H-[Nlys][Nleu][Nlys][Nrpe][Gly(N-piperonyl)][Nlys][Nleu][Nlys][Nlys]; amide I:11-II:C; N-terminus assumed) | 11 fold | – | – | –
Avastin: ultra-high affinity anti-VEGF antibody employed clinically [reference compound] | – | – | – | effect on VEGFR2 autophosphorylation (in words) (VEGFR2 [2]; 1 μM, 1.3 nM VEGF): completely blocked
Nlys-Npip-Nleu-Nlys-Npip-Nlys-Nleu-Nlys-Nlys [GU40B] | – | None of the peptoids exhibited agonist activity | no effect | –
CC(C)CN(CC(=O)N(CCCCN)CC(=O)N(CCCCN)CC(N)=O)C(=O)CN(CCCCN)C(=O)CN(CC(C)C)C(=O)CN(CCCCN)C(=O)CN(Cc1ccco1)C(=O)CN(CCCCN)C(=O)CNCCc1c[nH]c2ccccc12 [GU40E, Ntrp-Nlys-Nffa-Nlys-Nleu-Nlys-Nleu-Nlys-Nlys] (H-[Gly(N(CH2)2(3-indolyl))][Nlys][NFurfurylGly][Nlys][Nleu][Nlys][Nleu][Nlys][Nlys]-NH2) | – | Neither peptoid at any concentration tested evinced agonist activity; also recorded: None of the peptoids exhibited agonist activity | weak antagonists | binding to GST (GST): did not bind detectably; binding after pre-incubation of immobilized receptor with unlabeled VEGF (VEGFR2 [1]; fluoresceinated peptoid): almost no binding; binding to CD105 (CD105): did not bind detectably
CC(C)CN(CC(=O)N(CCCCN)CC(=O)N(CCCCN)CC(=O)NCCCCCC(=O)NCCC(=O)N[C@@H](CCCCNC(=O)CN(CCCCN)C(=O)CN(CCCCN)C(=O)CN(CC(C)C)C(=O)CN(CCCCN)C(=O)CN(CC(C)C)C(=O)CN(CCCCN)C(=O)CN(Cc1ccco1)C(=O)CN(CCCCN)C(=O)CNCCc1c[nH]c2ccccc12)C(=O)N[C@@H](CSC1CC(=O)N(c2ccc3c(c2)C(=O)OC32c3ccc(O)cc3Oc3cc(O)ccc32)C1=O)C(N)=O)C(=O)CN(CCCCN)C(=O)CN(CC(C)C)C(=O)CN(CCCCN)C(=O)CN(Cc1ccco1)C(=O)CN(CCCCN)C(=O)CNCCc1c[nH]c2ccccc12 (some centres unmarked) [GU40E4] (I: H-[Gly(N(CH2)2(3-indolyl))][Nlys][NFurfurylGly][Nlys][Nleu][Nlys][Nleu][Nlys][Nlys][Ahx][βAla]KC(Fluorescein(5-Mal))-NH2 / II: H-[Gly(N(CH2)2(3-indolyl))][Nlys][NFurfurylGly][Nlys][Nleu][Nlys][Nleu][Nlys][Nlys]; amide I:12-II:C; N-terminus assumed) | 9 fold | – | – | –
